Data taken from patent US4042707A, “3α-Arylhydroisoindoles” (E. I. Du Pont de Nemours and Company, priority 1976, dated 1977).
Counter-ions that a name gives are not always drawn.

Tests used:
[1] = test system: Straub tail induced by morphine sulfate; experiment: narcotic antagonist test: prevention of morphine-induced Straub tail in mice; assay type: in vivo; conditions: test drug s.c. 10 min before morphine sulfate 40 mg/kg s.c., observed 20 min, fasted female CF1 S mice; for ED50: Mus musculus, sc, read-out: ED50, prevention of 90° Straub tail (narcotic antagonism)
Method: (§1) There is a close correlation between a drug's addiction liability and its ability to cause Straub tail in mice [Shemano and Wendel, Tox. Appl. Pharm., 6, 334-339 (1964)] at doses much below the LD50. […] This property is the basis of a test for detecting new narcotic antagonist drugs.
17-21 Hour fasted female CF1 S mice 5 per dose were injected subcutaneously (loose skin inside hind limb) with test drug at 0.67, 2, 6, 18, 54, and 162 mg/kg in 0.20 ml 1% Methocel® per mouse. 10 Minutes later, a dosage of 40 mg/kg (base weight) of morphine sulfate in 0.20 ml 1% Methocel® per mouse was given subcutaneously (nape of neck). The mice were observed continuously for the next 20 minutes after the first mouse of a group of 30 had received morphine. Prevention of a 90° Straub tail during this observation period was taken as indication of narcotic antagonist ability. The table below gives the results for several compounds.

[2] = test system: phenylquinone-induced writhing; experiment: phenylquinone writhing (PQW) test, analgesic activity, oral, mice; assay type: in vivo; conditions: Mus musculus, fasted female white mice, phenylquinone i.p. at 23 or 30 min, ED50 for 50% of mice
Method: A standard procedure for detecting and comparing the analgesic acitivity of the compounds, for which there is good correlation with human efficacy, is the standard phenylquinone writhing (PQW) test modified from Siegmund, et al., Proc. Soc. Exp. Biol. Med. 95, 729 (1957). A test compound suspended in 1% methylcellulose was given orally to fasted (17-21 hours) female white mice, 5-20 animals per double blind test. Aqueous (0.01% phenyl-p-benzoquinone)phenylquinone was injected intraperitoneally at 23 or 30 minutes later using 0.25 ml per mouse. […] The effective analgesic dose for 50% of the mice (ED50) was calculated by the moving average method of Weil, Biometrics 8, 249 (1952).
(§2) Ideally a low ED50 dosage for PQW and a high ED50 dosage for ST (Straub Tail) is desired.

Straub Tail (ST), oral = conditions: mouse, in vivo, mice, high ED50 desired
Description: as §2, §1

[3] = test system: Straub tail in mice induced by morphine; conditions: Blumberg, Dayton, and Wolf 1968; cited from earlier work

Row | Compound | ED50 [2] | ED50 (Straub Tail (ST), oral) | also measured
1 | Oc1cccc([C@]23CC=CC[C@H]2CN(CCc2ccccc2)C3)c1 (relative stereo) [Example 7, N-Phenethyl-3a-(m-hydroxyphenyl)-2,3,3a,4,7,7a-cis-hexahydroisoindole] |  |  | ED50 [1]: 43 mg/kg
2 | C=CCN1C[C@@H]2CC=CC[C@]2(c2ccccc2)C1 (relative stereo) | 140 mg/kg | > 200 mg/kg | 
3 | Oc1cccc([C@]23CC=CC[C@H]2CN(CCc2ccccc2)C3)c1 (relative stereo) [drawing 74] | 19 mg/kg |  | 
4 | C=CCN1CC[C@]23c4c5ccc(O)c4O[C@H]2C(=O)CC[C@@]3(O)[C@H]1C5 [naloxone] |  |  | prevention of the induction of Straub tail [3]: can prevent the induction of Straub tail
5 | C=CCN1CC[C@]23c4c5ccc(O)c4O[C@H]2[C@@H](O)C=C[C@H]3[C@H]1C5 [nalorphine] |  |  | prevention of the induction of Straub tail [3]: can prevent the induction of Straub tail
6 | CC(C)=CCN1CCC2(C)c3cc(O)ccc3CC1C2C (stereo not shown) [Pentazocine, reference compound] |  |  | ED50 [1]: 4 mg/kg; prevention of the induction of Straub tail [3]: can prevent the induction of Straub tail
7 | COc1cccc([C@]23CC(C)=C(C)C[C@@H]2CN(CC2CC2)C3)c1 (relative stereo) | 78 mg/kg | > 135 mg/kg | 
8 | CN1C[C@@H]2CCCC[C@]2(c2ccccc2)C1 (relative stereo) | 90 mg/kg | > 200 mg/kg | 
9 | COc1cccc([C@]23CC=CC[C@H]2CN(CCc2ccccc2)C3)c1 (relative stereo) | 26 mg/kg |  | 
10 | Oc1cccc([C@]23CC=CC[C@H]2CN(CCc2ccccc2)C3)c1 (relative stereo) [Example 8, N-Phenethyl-3a-(m-hydroxyphenyl)-2,3,3a,4,7,7a-hexahydroisoindole Hydrochloride] |  |  | ED50, prevention of 90° Straub tail (narcotic antagonism) ([1]; Hydrochloride): 54 mg/kg
11 | CC1=C(C)C[C@]2(c3cccc(O)c3)CN(CC3CC3)C[C@H]2C1 (relative stereo) [drawing 69] | 120 mg/kg | > 162 mg/kg | 
12 | CN1C[C@@H]2CC=CC[C@]2(c2ccccc2)C1 (relative stereo) | 32 mg/kg | > 162 mg/kg | 
13 | CC1=C(C)C[C@]2(c3cccc(O)c3)CN(CC3CC3)C[C@H]2C1 (relative stereo) [Example 2, N-Cyclopropylmethyl-3a-(m-hydroxyphenyl)-5,6-dimethyl-2,3,3a,4,7,7a-trans-hexahydroisoindole] |  |  | ED50 [1]: 5.2 mg/kg
